Data set [1] in a line: Acid dissociation constant was determined. It counts as ADME.
In data set [2] the target is T1, Sulfonylurea receptor 1, Kir6.2 (Homo sapiens, UniProt Q09428+Q14654). Kind of data set: Inhibition of Beta-cell KATP channel. It counts as functional.
In data set [3] the target is Sulfonylurea receptor 1, Kir6.2 (Homo sapiens) (UniProt Q14654+Q09428). Kind of data set: Percentage of maximal agonistic response of Beta-cell KATP channel as compared to diazoxide (50 uM). It counts as functional.
The target of data set [4] is T1, Sulfonylurea receptor 1, Kir6.2. In words: Negative log EC50 for Beta-cell KATP channel. It counts as functional.

T1 sequence (Q14654 whole entry): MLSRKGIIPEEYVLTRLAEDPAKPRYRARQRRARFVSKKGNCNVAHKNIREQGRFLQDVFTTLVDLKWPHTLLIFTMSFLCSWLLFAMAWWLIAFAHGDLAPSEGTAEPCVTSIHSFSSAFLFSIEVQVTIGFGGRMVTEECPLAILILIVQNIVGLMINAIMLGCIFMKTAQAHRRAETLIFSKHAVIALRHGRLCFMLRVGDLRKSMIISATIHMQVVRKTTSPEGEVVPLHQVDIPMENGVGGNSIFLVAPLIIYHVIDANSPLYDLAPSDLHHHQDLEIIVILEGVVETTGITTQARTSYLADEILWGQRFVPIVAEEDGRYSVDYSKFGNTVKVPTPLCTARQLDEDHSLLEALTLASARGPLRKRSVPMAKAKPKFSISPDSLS
T1 sequence (Q09428 whole entry): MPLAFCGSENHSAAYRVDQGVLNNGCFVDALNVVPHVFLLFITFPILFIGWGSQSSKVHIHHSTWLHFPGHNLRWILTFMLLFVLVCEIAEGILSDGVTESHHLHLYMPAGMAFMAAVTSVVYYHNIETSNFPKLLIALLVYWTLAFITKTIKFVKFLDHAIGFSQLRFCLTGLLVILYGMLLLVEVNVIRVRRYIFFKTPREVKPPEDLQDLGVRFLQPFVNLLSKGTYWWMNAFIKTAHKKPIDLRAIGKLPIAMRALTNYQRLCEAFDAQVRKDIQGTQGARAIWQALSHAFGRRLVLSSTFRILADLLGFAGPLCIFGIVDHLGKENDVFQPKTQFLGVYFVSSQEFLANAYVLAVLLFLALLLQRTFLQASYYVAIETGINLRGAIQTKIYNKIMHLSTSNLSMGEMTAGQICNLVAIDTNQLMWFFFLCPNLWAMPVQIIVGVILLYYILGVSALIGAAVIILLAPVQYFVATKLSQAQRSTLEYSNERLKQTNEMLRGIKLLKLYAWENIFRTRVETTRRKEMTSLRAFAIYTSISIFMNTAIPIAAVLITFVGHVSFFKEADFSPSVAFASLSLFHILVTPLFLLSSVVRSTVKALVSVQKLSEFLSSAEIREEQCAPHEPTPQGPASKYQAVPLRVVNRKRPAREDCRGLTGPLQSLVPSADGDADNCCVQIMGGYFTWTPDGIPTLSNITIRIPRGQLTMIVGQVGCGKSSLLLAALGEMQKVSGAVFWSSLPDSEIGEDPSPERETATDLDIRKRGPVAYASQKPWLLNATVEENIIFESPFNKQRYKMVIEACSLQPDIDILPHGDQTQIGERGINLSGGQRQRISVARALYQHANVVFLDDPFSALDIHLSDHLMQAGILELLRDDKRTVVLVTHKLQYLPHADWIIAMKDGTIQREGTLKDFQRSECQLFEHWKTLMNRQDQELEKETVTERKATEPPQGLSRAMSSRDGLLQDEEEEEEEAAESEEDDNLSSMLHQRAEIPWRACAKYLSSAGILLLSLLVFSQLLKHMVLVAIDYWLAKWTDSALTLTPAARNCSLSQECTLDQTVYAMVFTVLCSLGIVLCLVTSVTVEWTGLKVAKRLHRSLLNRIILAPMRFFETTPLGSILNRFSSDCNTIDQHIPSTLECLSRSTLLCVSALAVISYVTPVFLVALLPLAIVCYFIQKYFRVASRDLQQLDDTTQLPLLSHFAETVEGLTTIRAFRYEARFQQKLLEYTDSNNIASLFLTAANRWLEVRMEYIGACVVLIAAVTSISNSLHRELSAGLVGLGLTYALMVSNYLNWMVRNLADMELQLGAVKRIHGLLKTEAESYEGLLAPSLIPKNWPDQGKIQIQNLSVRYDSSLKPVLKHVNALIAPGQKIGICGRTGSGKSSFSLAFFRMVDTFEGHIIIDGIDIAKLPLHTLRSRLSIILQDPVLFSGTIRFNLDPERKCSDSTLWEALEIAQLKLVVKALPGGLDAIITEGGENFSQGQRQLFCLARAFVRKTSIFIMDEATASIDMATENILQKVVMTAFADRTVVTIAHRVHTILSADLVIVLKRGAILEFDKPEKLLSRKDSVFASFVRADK

On to `O=S1(=O)N=C(NC2CCC2)Nc2ccc(Cl)cc21`, for which, in data set [1], the pKa is 9.36. For the same compound, the EC50 in data set [2] was 196 nM; in data set [4] it was 200 nM. Besides, the Max in data set [3] stood at 137%.

In data set [1], `CC1=NS(=O)(=O)c2cc(Cl)ccc2N1` [DIAZOXIDE] returned a pKa of 8.62.

As for `COc1ccc2c(c1)S(=O)(=O)NC(NC1CCC1)=N2`, the EC50 is 3870 nM in data set [2] and 3980 nM in data set [4]. Also, the Max in data set [3] came to 122%.

As for `O=S1(=O)NC(NC2CCC2)=Nc2ccc(F)cc21`, in data set [1], the pKa came to 9.57. The EC50 in data set [2] was 356 nM; in data set [4] it was 398 nM. For the same compound, the Max in data set [3] stood at 136%.

Take `Nc1ccc2c(c1)S(=O)(=O)NC(NC1CCC1)=N2`: the values for the EC50 in data set [2] and in data set [4] were 31000 nM and 31600 nM, respectively. For the same compound, in data set [3], the Max came to 96.9%.

As for `CC1=Nc2ccc(Cl)cc2S(=O)(=O)N1`, in data set [3], the Max was 100%.

The compound `O=[N+]([O-])c1ccc2c(c1)S(=O)(=O)NC(NC1CCC1)=N2` showed a pKa in data set [1] of 7.89. Further, the EC50 in data set [2] worked out at 530 nM. Besides, the Max in data set [3] was found to be 30.9%.

With `O=S1(=O)N=C(NC2CCC2)Nc2ccccc21`, the figures for the EC50 in data set [2] and in data set [4] were 1960 nM and 2000 nM, respectively. In data set [3], this compound returned a Max of 109%.

The values above are taken from ChEMBL document CHEMBL1134916, “Synthesis and evaluation of 7-substituted-3-cyclobutylamino-4H-1,2,4-benzothiadiazine-1,1-dioxide derivatives as K(ATP) channel agonists” (Bioorg Med Chem Lett, 2002).
